{
  "source": "patent EP4722207A1",
  "about": "“OXOISOINDOLINYL-SUBSTITUTED TETRAHYDROPYRIMIDINEDIONE DERIVATIVE AND USE THEREOF” (Gluetacs Therapeutics (Shanghai) Co., Ltd., priority 2023, dated 2024)",
  "type_in_all_cases": "cell-based",
  "settings_in_all_cases": "24 hours of compound treatment, 50 nM and 500 nM",
  "key": {"[1]": {"target": "T1, CK1α (Homo sapiens, UniProt P48729+Q96SW2)", "T1 construct": "effects of the compounds of the present disclosure on the expression of target proteins in cells; endogenous in cells; host or cells: human PBMCs (hPBMCs)", "T1 sequence (P48729 whole entry)": "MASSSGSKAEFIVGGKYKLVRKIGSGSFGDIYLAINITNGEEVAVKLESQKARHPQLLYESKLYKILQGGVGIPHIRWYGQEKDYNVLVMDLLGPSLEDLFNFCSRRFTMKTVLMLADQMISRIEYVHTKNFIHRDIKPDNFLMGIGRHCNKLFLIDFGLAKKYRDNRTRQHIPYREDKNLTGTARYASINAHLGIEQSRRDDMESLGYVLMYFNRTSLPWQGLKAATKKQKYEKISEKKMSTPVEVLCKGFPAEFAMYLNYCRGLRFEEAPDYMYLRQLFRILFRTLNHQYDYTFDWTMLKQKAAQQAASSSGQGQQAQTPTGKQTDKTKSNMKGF", "T1 sequence (Q96SW2 whole entry)": "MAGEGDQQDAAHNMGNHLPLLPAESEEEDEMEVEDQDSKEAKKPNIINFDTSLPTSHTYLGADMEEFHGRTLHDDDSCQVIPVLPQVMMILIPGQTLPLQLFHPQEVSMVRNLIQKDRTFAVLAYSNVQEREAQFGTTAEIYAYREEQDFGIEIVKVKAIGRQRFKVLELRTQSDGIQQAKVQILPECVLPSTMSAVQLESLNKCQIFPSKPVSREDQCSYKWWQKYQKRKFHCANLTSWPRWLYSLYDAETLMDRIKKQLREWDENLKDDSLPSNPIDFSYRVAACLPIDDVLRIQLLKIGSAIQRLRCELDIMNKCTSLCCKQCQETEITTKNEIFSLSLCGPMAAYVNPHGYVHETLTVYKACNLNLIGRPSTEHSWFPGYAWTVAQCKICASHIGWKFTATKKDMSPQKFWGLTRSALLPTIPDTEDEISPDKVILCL", "T1 sequence (Q16531 whole entry partner)": "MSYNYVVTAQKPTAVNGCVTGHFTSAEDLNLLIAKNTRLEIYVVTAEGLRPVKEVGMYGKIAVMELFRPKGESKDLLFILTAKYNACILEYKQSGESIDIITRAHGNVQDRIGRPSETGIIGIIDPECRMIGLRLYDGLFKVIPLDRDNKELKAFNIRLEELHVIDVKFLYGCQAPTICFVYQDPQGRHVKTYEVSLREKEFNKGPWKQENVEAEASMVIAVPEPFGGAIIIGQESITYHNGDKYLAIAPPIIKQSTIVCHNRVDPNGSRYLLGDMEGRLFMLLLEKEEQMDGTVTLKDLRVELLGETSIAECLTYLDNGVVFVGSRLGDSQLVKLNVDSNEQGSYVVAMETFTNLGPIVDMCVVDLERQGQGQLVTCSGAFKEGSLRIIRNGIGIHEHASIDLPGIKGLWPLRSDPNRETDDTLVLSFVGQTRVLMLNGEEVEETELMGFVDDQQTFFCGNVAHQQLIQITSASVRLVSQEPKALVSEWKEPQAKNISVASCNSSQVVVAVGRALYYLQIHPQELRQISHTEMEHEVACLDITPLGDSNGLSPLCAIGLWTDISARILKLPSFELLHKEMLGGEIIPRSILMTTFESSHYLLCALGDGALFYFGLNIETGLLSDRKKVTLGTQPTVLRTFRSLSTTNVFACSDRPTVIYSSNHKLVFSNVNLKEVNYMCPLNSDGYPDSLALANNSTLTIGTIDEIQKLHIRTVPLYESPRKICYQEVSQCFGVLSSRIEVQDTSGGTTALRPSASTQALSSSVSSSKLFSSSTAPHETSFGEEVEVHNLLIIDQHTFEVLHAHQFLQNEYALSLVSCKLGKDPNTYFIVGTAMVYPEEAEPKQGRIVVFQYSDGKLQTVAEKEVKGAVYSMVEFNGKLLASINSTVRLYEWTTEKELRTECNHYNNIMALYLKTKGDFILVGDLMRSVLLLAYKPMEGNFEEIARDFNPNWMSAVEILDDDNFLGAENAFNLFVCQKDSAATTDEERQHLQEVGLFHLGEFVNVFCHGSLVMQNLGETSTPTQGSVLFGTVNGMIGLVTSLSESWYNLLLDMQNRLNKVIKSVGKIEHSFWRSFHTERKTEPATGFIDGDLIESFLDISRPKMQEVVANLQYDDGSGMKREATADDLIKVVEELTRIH", "assay": "Western-blot assay, substrate protein degradation in hPBMCs: CK1α"}, "[2]": {"target": "T2, IKZF2 (Homo sapiens, UniProt Q96SW2+Q9UKS7)", "T2 construct": "effects of the compounds of the present disclosure on the expression of target proteins in cells; endogenous in cells; host or cells: human PBMCs (hPBMCs)", "T2 sequence (Q9UKS7 whole entry)": "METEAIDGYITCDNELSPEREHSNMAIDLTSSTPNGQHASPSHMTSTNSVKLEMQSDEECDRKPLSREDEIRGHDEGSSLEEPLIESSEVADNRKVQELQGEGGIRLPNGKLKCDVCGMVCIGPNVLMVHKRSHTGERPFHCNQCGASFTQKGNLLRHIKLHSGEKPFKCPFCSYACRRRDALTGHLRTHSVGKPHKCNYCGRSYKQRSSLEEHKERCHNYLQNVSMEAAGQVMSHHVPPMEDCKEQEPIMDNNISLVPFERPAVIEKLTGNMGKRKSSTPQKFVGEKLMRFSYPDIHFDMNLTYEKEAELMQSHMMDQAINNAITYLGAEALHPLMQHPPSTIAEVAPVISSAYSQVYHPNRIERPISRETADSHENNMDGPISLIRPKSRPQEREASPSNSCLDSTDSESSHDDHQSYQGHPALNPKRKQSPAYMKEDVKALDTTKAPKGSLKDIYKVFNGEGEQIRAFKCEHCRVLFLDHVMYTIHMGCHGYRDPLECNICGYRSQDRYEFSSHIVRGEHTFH", "T2 sequence (Q96SW2 whole entry)": "as the sequence (Q96SW2 whole entry) above", "T2 sequence (Q16531 whole entry partner)": "as the sequence (Q16531 whole entry partner) above", "assay": "Western-blot assay, substrate protein degradation in hPBMCs: IKZF2"}, "[3]": {"target": "T3, GSPT1 (Homo sapiens, UniProt P15170+Q96SW2)", "T3 construct": "effects of the compounds of the present disclosure on the expression of target proteins in cells; endogenous in cells; host or cells: human PBMCs (hPBMCs)", "T3 sequence (P15170 whole entry)": "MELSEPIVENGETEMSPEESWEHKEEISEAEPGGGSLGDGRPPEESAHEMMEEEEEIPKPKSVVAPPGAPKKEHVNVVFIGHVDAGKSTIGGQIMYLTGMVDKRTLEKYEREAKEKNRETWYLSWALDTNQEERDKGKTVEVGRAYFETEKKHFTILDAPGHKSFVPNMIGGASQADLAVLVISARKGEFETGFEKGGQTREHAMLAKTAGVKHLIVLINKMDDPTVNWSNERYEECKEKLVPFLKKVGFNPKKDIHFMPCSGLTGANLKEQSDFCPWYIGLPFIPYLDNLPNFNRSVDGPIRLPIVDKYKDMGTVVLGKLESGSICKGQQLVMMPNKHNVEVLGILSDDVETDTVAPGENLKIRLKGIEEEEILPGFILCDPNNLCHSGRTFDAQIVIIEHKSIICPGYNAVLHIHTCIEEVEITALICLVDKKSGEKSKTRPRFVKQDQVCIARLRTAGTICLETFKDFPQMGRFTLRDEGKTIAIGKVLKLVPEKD", "T3 sequence (Q96SW2 whole entry)": "as the sequence (Q96SW2 whole entry) above", "T3 sequence (Q16531 whole entry partner)": "as the sequence (Q16531 whole entry partner) above", "assay": "Western-blot assay, substrate protein degradation in hPBMCs: GSPT1"}, "[4]": {"target": "T4, IKZF3 (Homo sapiens, UniProt Q96SW2+Q9UKT9)", "T4 construct": "effects of the compounds of the present disclosure on the expression of target proteins in cells; endogenous in cells; host or cells: human PBMCs (hPBMCs)", "T4 sequence (Q9UKT9 whole entry)": "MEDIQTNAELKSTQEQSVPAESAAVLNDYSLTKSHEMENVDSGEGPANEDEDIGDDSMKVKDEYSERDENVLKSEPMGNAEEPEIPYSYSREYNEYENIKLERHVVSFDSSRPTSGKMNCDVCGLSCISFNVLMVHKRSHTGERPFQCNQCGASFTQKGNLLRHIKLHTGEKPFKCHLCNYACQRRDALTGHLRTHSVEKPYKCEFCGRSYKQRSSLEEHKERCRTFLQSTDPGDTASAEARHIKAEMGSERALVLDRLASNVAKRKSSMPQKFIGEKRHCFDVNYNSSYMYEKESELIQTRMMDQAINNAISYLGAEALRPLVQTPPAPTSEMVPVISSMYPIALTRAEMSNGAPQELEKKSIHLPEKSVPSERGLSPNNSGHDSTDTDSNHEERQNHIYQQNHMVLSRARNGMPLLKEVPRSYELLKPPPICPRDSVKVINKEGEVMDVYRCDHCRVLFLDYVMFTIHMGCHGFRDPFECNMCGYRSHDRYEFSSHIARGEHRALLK", "T4 sequence (Q96SW2 whole entry)": "as the sequence (Q96SW2 whole entry) above", "T4 sequence (Q16531 whole entry partner)": "as the sequence (Q16531 whole entry partner) above", "assay": "Western-blot assay, substrate protein degradation in hPBMCs: IKZF3"}, "[5]": {"target": "T5, IKZF1 (Homo sapiens, UniProt Q13422+Q96SW2)", "T5 construct": "effects of the compounds of the present disclosure on the expression of target proteins in cells; endogenous in cells; host or cells: human PBMCs (hPBMCs)", "assay": "Western-blot assay, substrate protein degradation in hPBMCs: IKZF1"}, "[6]": {"target": "T6, WEE1 (Homo sapiens, UniProt P30291+Q96SW2)", "T6 construct": "effects of the compounds of the present disclosure on the expression of target proteins in cells; endogenous in cells; host or cells: human PBMCs (hPBMCs)", "T6 sequence (P30291 whole entry)": "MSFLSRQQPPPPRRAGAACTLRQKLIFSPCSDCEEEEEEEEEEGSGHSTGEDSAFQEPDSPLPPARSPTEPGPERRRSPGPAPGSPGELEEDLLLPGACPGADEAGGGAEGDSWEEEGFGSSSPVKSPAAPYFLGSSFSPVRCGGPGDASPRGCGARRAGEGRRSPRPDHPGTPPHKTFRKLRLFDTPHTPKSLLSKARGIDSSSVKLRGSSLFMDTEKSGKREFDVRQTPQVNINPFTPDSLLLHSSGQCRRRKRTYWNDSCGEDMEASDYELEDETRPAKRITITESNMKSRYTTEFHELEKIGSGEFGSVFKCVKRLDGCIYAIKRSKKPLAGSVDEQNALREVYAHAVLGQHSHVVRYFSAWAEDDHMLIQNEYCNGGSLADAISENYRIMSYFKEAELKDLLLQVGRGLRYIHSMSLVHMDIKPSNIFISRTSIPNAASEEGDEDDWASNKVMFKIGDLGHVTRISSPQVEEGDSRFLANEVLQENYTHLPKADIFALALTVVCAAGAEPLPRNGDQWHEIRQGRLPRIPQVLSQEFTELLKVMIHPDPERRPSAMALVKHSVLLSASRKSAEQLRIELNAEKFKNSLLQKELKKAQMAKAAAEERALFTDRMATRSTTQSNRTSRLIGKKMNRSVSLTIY", "T6 sequence (Q96SW2 whole entry)": "as the sequence (Q96SW2 whole entry) above", "T6 sequence (Q16531 whole entry partner)": "as the sequence (Q16531 whole entry partner) above", "assay": "Western-blot assay, substrate protein degradation in hPBMCs: WEE1"}},
  "data": [
    {"compound": "O=C1CCN(N2Cc3cc(CN4CC(C5CCOc6cc(F)ccc65)C4)ccc3C2=O)C(=O)N1", "note": "(stereo not drawn) [GT-07690, 1-(5-((3-(7-fluorochroman-4-yl)azetidin-1-yl)methyl)-1-oxoisoindolin-2-yl)dihydropyrimidine-2,4(1H,3H)-dione]", "values": [
      {"measurement": "substrate protein remaining % CK1α", "setting": "[1]", "value": "A (0% ≤ substrate protein remaining % ≤ 80%)"},
      {"measurement": "substrate protein remaining % IKZF2", "setting": "[2]", "value": "A (0% ≤ substrate protein remaining % ≤ 80%)"},
      {"measurement": "substrate protein remaining % GSPT1", "setting": "[3]", "value": "A (0% ≤ substrate protein remaining % ≤ 80%)"},
      {"measurement": "substrate protein remaining % IKZF3", "setting": "[4]", "value": "B (80%< substrate protein remaining %≤ 100%)"},
      {"measurement": "substrate protein remaining % IKZF1", "setting": "[5]", "value": "B (80%< substrate protein remaining %≤ 100%)"},
      {"measurement": "substrate protein remaining % WEE1", "setting": "[6]", "value": "B (80%< substrate protein remaining %≤ 100%)"}
    ]},
    {"compound": "O=C1CCN(N2Cc3cc(CN4CC(c5ccnc6cc(F)ccc56)C4)ccc3C2=O)C(=O)N1", "note": "[GT-07711, 1-(5-((3-(7-fluoroquinolin-4-yl)azetidin-1-yl)methyl)-1-oxoisoindolin-2-yl)dihydropyrimidine-2,4(1H,3H)-dione]", "values": [
      {"measurement": "substrate protein remaining % CK1α", "setting": "[1]", "value": "A (0% ≤ substrate protein remaining % ≤ 80%)"},
      {"measurement": "substrate protein remaining % IKZF2", "setting": "[2]", "value": "A (0% ≤ substrate protein remaining % ≤ 80%)"},
      {"measurement": "substrate protein remaining % GSPT1", "setting": "[3]", "value": "A (0% ≤ substrate protein remaining % ≤ 80%)"},
      {"measurement": "substrate protein remaining % IKZF3", "setting": "[4]", "value": "A (0% ≤ substrate protein remaining % ≤ 80%)"},
      {"measurement": "substrate protein remaining % IKZF1", "setting": "[5]", "value": "A (0% ≤ substrate protein remaining % ≤ 80%)"},
      {"measurement": "substrate protein remaining % WEE1", "setting": "[6]", "value": "B (80%< substrate protein remaining %≤ 100%)"}
    ]},
    {"compound": "O=C1CCN(N2C(=O)c3ccc(CN4CC(C5CCOc6cc(F)ccc65)C4)cc3C2=O)C(=O)N1", "note": "(stereo not drawn) [GT-07715, 2-(2,4-dioxotetrahydropyrimidin-1(2H)-yl)-5-((3-(7-fluorochroman-4-yl)azetidin-1-yl)methyl)isoindoline-1,3-dione]", "values": [
      {"measurement": "substrate protein remaining % CK1α", "setting": "[1]", "value": "A (0% ≤ substrate protein remaining % ≤ 80%)"},
      {"measurement": "substrate protein remaining % IKZF2", "setting": "[2]", "value": "B (80%< substrate protein remaining %≤ 100%)"},
      {"measurement": "substrate protein remaining % GSPT1", "setting": "[3]", "value": "A (0% ≤ substrate protein remaining % ≤ 80%)"},
      {"measurement": "substrate protein remaining % IKZF3", "setting": "[4]", "value": "B (80%< substrate protein remaining %≤ 100%)"},
      {"measurement": "substrate protein remaining % IKZF1", "setting": "[5]", "value": "B (80%< substrate protein remaining %≤ 100%)"},
      {"measurement": "substrate protein remaining % WEE1", "setting": "[6]", "value": "B (80%< substrate protein remaining %≤ 100%)"}
    ]},
    {"compound": "O=C1CCN(N2C(=O)c3ccc(CN4CC(c5ccnc6cc(F)ccc56)C4)cc3C2=O)C(=O)N1", "note": "[GT-07718, 2-(2,4-dioxotetrahydropyrimidin-1(2H)-yl)-5-((3-(7-fluoroquinolin-4-yl)azetidin-1-yl)methyl)isoindoline-1,3-dione]", "values": [
      {"measurement": "substrate protein remaining % CK1α", "setting": "[1]", "value": "A (0% ≤ substrate protein remaining % ≤ 80%)"},
      {"measurement": "substrate protein remaining % IKZF2", "setting": "[2]", "value": "B (80%< substrate protein remaining %≤ 100%)"},
      {"measurement": "substrate protein remaining % GSPT1", "setting": "[3]", "value": "A (0% ≤ substrate protein remaining % ≤ 80%)"},
      {"measurement": "substrate protein remaining % IKZF3", "setting": "[4]", "value": "A (0% ≤ substrate protein remaining % ≤ 80%)"},
      {"measurement": "substrate protein remaining % IKZF1", "setting": "[5]", "value": "B (80%< substrate protein remaining %≤ 100%)"},
      {"measurement": "substrate protein remaining % WEE1", "setting": "[6]", "value": "B (80%< substrate protein remaining %≤ 100%)"}
    ]},
    {"compound": "O=C1CCN(N2Cc3cc(CN4CCn5c(nnc5C(F)(F)F)C4)ccc3C2=O)C(=O)N1", "note": "[GT-07719, 1-(1-oxo-5-((3-(trifluoromethyl)-5,6-dihydro-[1,2,4]triazolo[4,3-a]pyrazin-7(8H)-yl)methyl)isoindolin-2-yl)dihydropyrimidine-2,4(1H,3H)-dione]", "values": [
      {"measurement": "substrate protein remaining % CK1α", "setting": "[1]", "value": "A (0% ≤ substrate protein remaining % ≤ 80%)"},
      {"measurement": "substrate protein remaining % IKZF2", "setting": "[2]", "value": "A (0% ≤ substrate protein remaining % ≤ 80%)"},
      {"measurement": "substrate protein remaining % GSPT1", "setting": "[3]", "value": "A (0% ≤ substrate protein remaining % ≤ 80%)"},
      {"measurement": "substrate protein remaining % IKZF3", "setting": "[4]", "value": "A (0% ≤ substrate protein remaining % ≤ 80%)"},
      {"measurement": "substrate protein remaining % IKZF1", "setting": "[5]", "value": "B (80%< substrate protein remaining %≤ 100%)"},
      {"measurement": "substrate protein remaining % WEE1", "setting": "[6]", "value": "B (80%< substrate protein remaining %≤ 100%)"}
    ]},
    {"compound": "O=C1CCN(N2Cc3cc(CN4CCc5sccc5C4)ccc3C2=O)C(=O)N1", "note": "[GT-07720, 1-(5-((6,7-dihydrothieno[3,2-c]pyridin-5(4H)-yl)methyl)-1-oxoisoindolin-2-yl)dihydropyrimidine-2,4(1H,3H)-dione]", "values": [
      {"measurement": "substrate protein remaining % CK1α", "setting": "[1]", "value": "A (0% ≤ substrate protein remaining % ≤ 80%)"},
      {"measurement": "substrate protein remaining % IKZF2", "setting": "[2]", "value": "A (0% ≤ substrate protein remaining % ≤ 80%)"},
      {"measurement": "substrate protein remaining % GSPT1", "setting": "[3]", "value": "A (0% ≤ substrate protein remaining % ≤ 80%)"},
      {"measurement": "substrate protein remaining % IKZF3", "setting": "[4]", "value": "A (0% ≤ substrate protein remaining % ≤ 80%)"},
      {"measurement": "substrate protein remaining % IKZF1", "setting": "[5]", "value": "A (0% ≤ substrate protein remaining % ≤ 80%)"},
      {"measurement": "substrate protein remaining % WEE1", "setting": "[6]", "value": "A (0% ≤ substrate protein remaining % ≤ 80%)"}
    ]},
    {"compound": "O=C1CCN(N2Cc3cc(CN4CCN(Cc5ccc(C67CC8CC(CC(C8)C6)C7)cc5)CC4)ccc3C2=O)C(=O)N1", "note": "[GT-07721, 1-(5-((4-(4-((3r,5r,7r)-adamantan-1-yl)benzyl)piperazin-1-yl)methyl)-1-oxoisoindolin-2-yl)dihydropyrimidine-2,4(1H,3H)-dione]", "values": [
      {"measurement": "substrate protein remaining % CK1α", "setting": "[1]", "value": "A (0% ≤ substrate protein remaining % ≤ 80%)"},
      {"measurement": "substrate protein remaining % IKZF2", "setting": "[2]", "value": "A (0% ≤ substrate protein remaining % ≤ 80%)"},
      {"measurement": "substrate protein remaining % GSPT1", "setting": "[3]", "value": "A (0% ≤ substrate protein remaining % ≤ 80%)"},
      {"measurement": "substrate protein remaining % IKZF3", "setting": "[4]", "value": "A (0% ≤ substrate protein remaining % ≤ 80%)"},
      {"measurement": "substrate protein remaining % IKZF1", "setting": "[5]", "value": "A (0% ≤ substrate protein remaining % ≤ 80%)"},
      {"measurement": "substrate protein remaining % WEE1", "setting": "[6]", "value": "A (0% ≤ substrate protein remaining % ≤ 80%)"}
    ]},
    {"compound": "O=C1CCN(N2C(=O)c3ccc(CN4CCN(Cc5ccc(C67CC8CC(CC(C8)C6)C7)cc5)CC4)cc3C2=O)C(=O)N1", "note": "[GT-07722, 5-((4-(4-((3r,5r,7r)-adamantan-1-yl)benzyl)piperazin-1-yl)methyl)-2-(2,4-dioxotetrahydropyrimidin-1(2H)-yl)isoindoline-1,3-dione]", "values": [
      {"measurement": "substrate protein remaining % CK1α", "setting": "[1]", "value": "A (0% ≤ substrate protein remaining % ≤ 80%)"},
      {"measurement": "substrate protein remaining % IKZF2", "setting": "[2]", "value": "A (0% ≤ substrate protein remaining % ≤ 80%)"},
      {"measurement": "substrate protein remaining % GSPT1", "setting": "[3]", "value": "A (0% ≤ substrate protein remaining % ≤ 80%)"},
      {"measurement": "substrate protein remaining % IKZF3", "setting": "[4]", "value": "A (0% ≤ substrate protein remaining % ≤ 80%)"},
      {"measurement": "substrate protein remaining % IKZF1", "setting": "[5]", "value": "B (80%< substrate protein remaining %≤ 100%)"},
      {"measurement": "substrate protein remaining % WEE1", "setting": "[6]", "value": "A (0% ≤ substrate protein remaining % ≤ 80%)"}
    ]},
    {"compound": "NCc1ccc2c(c1)C(=O)N(N1CCC(=O)NC1=O)C2=O", "note": "[GT-07968, 5-(aminomethyl)-2-(2,4-dioxotetrahydropyrimidin-1(2H)-yl)isoindoline-1,3-dione]", "values": [
      {"measurement": "substrate protein remaining % CK1α", "setting": "[1]", "value": "A (0% ≤ substrate protein remaining % ≤ 80%)"},
      {"measurement": "substrate protein remaining % IKZF2", "setting": "[2]", "value": "A (0% ≤ substrate protein remaining % ≤ 80%)"},
      {"measurement": "substrate protein remaining % GSPT1", "setting": "[3]", "value": "B (80%< substrate protein remaining %≤ 100%)"},
      {"measurement": "substrate protein remaining % IKZF3", "setting": "[4]", "value": "A (0% ≤ substrate protein remaining % ≤ 80%)"},
      {"measurement": "substrate protein remaining % IKZF1", "setting": "[5]", "value": "A (0% ≤ substrate protein remaining % ≤ 80%)"},
      {"measurement": "substrate protein remaining % WEE1", "setting": "[6]", "value": "A (0% ≤ substrate protein remaining % ≤ 80%)"}
    ]}
  ]
}
